Results published in ChEMBL document CHEMBL4831481, “Semisynthesis, Antiplasmodial Activity, and Mechanism of Action Studies of Isocoumarin Derivatives” (J Nat Prod, 2021).
Activity calls are given as the source filed them. The calls are words filed in the database; no cut-off is given here.

What was measured:
[1] = tested on: Plasmodium falciparum; assay: Antiplasmodial activity against Plasmodium falciparum HB3 infected in human erythrocytes assessed as reduction in parasite growth incubated for 48 hrs by PicoGreen DNA fluorescent dye; type: functional, organism-based; conditions: HB3, 48 h
[2] = Selectivity index, ratio of CC50 for African green monkey Vero cells to IC50 for Plasmodium falciparum HB3 infected in human erythrocytes assessed as reduction in parasite growth; type: toxicity, cell-based; conditions: read-out: Ratio CC50/IC50
[3] = tested on: Vero; assay: Cytotoxicity against African green monkey Vero cells assessed as reduction in cell viability by MTT assay; type: functional; conditions: Chlorocebus sabaeus
[4] = tested on: Trypanosoma cruzi; assay: Antitrypanosomal activity against Trypanosoma cruzi amastigotes infected in African green monkey Vero cells incubated for 5 days by chlorophenol red-beta-D-galactoside based colorimetric analysis; type: functional, organism-based; conditions: 120 h
[5] = tested on: Plasmodium falciparum; assay: […] activity in schizont stage Plasmodium falciparum HB3 assessed as reduction in mitochondrial membrane potential at 10 uM incubated for 20 mins and measured after 3 hrs by DiOC6-staining based fluorometry analysis relative to control; type: functional, organism-based
[6] = tested on: Plasmodium falciparum; assay: Induction of apoptosis in schizont stage Plasmodium falciparum HB3 infected red blood cells assessed as caspase activity measured by FLICA reagent based fluorescence assay; type: functional, organism-based
[7] = tested on: MCF7; assay: Growth inhibition of human MCF7 cells at 10 ug/mL relative to control; type: functional; conditions: read-out: GI
[8] = molecular target: T1, DNA gyrase (Escherichia coli) (UniProt P0AES6+P0AES4); assay: Inhibition of Escherichia coli DNA gyrase at 10 uM by fluorescence based assay relative to control; type: protein-complex assay
[9] = tested on: Leishmania donovani; assay: Antileishmanial activity against Leishmania donovani axenic amastigotes at 10 ug/mL assessed as growth inhibition relative to control; type: functional; conditions: read-out: GI
[10] = tested on: Hemozoin; assay: Inhibition of beta-hematin formation in Plasmodium falciparum assessed as decrease in beta-hematin; set-up: scale not given: the % may be the effect or the level left
[11] = tested on: Plasmodium falciparum; assay: Induction of reactive oxygen species generation in schizont stage Plasmodium falciparum HB3 incubated for 3 hrs at 10 uM by CM-H2DCFDA dye based fluorescence assay relative to control; type: functional, organism-based
[12] = Disruption of cell membrane integrity in red blood cells incubated for 3 hrs at 10 uM and measured by propidium iodide incorporation assay relative to control; type: ADME, cell membranes
[13] = tested on: Erythrocyte; assay: Hemolytic activity against red blood cells assessed as hemolysis at 10 uM incubated for 24 hrs by spectrophotometric analysis relative to control; type: ADME, cell-based
[14] = tested on: Plasmodium falciparum HB3; assay: Disruption of cell membrane integrity in schizont stage Plasmodium falciparum HB3 infected red blood cells incubated for 3 hrs at 10 uM and measured by propidium iodide incorporation assay relative to control; type: cell membranes
[15] = tested on: Trypanosoma cruzi; assay: Antitrypanosomal activity against Trypanosoma cruzi amastigotes infected in African green monkey Vero cells incubated for 5 days at 10 ug/mL by chlorophenol red-beta-D-galactoside based colorimetric analysis relative to control; type: functional; conditions: 120 h, time 5 day, read-out: GI
[16] = molecular target: T1, DNA gyrase (Escherichia coli); assay: Inhibition of Escherichia coli DNA gyrase at 50 uM by fluorescence based assay relative to control; type: protein-complex assay
[17] = molecular target: T1, DNA gyrase (Escherichia coli); assay: Inhibition of Escherichia coli DNA gyrase at 100 uM by fluorescence based assay relative to control; type: protein-complex assay

Row | IC50 [4] [µM] | SMILES | IC50 [1] [µM] | selectivity ratio [2] | CC50 [3] [µM] | also measured
1 | – | COc1cc2c(c(O)c1OC)C(=O)O[C@@H]1C[C@H](C[C@H](C)O)O[C@H]21 | 11.7 | 22 | 262 | –
2 | 13.6 | CCC[C@H]1C[C@H]2OC(=O)c3c(cc(O)c(O)c3OCc3cccc(C(F)(F)F)c3)[C@H]2O1 | – | – | – | –
3 | – | CCC[C@H](O)C[C@H]1OC(=O)c2c(cc(OC)c(OC)c2O)[C@H]1OC | 0.38 | 675 | 258 | Activity [5]: Active; Activity [6]: inactive; inhibition of growth at 10 µg/mL [7]: 0%; inhibition [8]: 48%; inhibition of growth at 10 µg/mL [9]: 0%; Activity [10]: 51.1%; Activity [11]: inactive; Activity [12]: Non-Toxic; Activity [13]: Non-Toxic; Activity [14]: inactive; inhibition of growth at 10 µg/mL [15]: 0%
4 | – | CCN(CC)CCCC(C)Nc1ccnc2cc(Cl)ccc12 (configuration not stated) | – | – | – | Activity [10]: 68.2%; inhibition [16]: inactive
5 | 12.4 | CCC[C@H]1C[C@H]2OC(=O)c3c(cc(O)c(O)c3OCc3ccc(C(F)(F)F)cc3)[C@H]2O1 | – | – | – | –
6 | – | CC/C(=C(\c1ccccc1)c1ccc(OCCN(C)C)cc1)c1ccccc1 | – | – | – | inhibition [17]: Active
7 | – | COC(=O)CC[C@H]1C[C@H]2OC(=O)c3c(cc(OC)c(OC)c3O)[C@H]2O1 | 2.58 | 41 | 106 | –
8 | – | CCC[C@H]1C[C@H]2OC(=O)c3c(cc(OC)c(OC)c3OC(C)=O)[C@H]2O1 | 0.77 | 161 | 124 | –
9 | – | CCC[C@H]1C[C@H]2OC(=O)c3c(cc(OC)c(OC)c3O)[C@H]2O1 [MONOCERIN] | 1.13 | 77 | 87.5 | –
10 | 11.9 | CCC[C@H]1C[C@H]2OC(=O)c3c(cc(O)c(O)c3OCc3cc(C(F)(F)F)cc(C(F)(F)F)c3)[C@H]2O1 | – | – | – | –
